According to patent publication US20040138312A1, “Methods for the treatment of neurodegeneration” (priority 2002, published 2004):

How the values were obtained:
Type in all cases: in vivo, C57B1/B6 type mice
[1] = test system: MPTP-treated mice; assay: Tail Hanging test (forelimb placement) in MPTP-treated mice; settings: during the period that the compound is administered; 3 mg/kg/day s.c. mini-pump
Excerpt: Mice are hung by their tails 3 times each, for approximately 10 seconds each time. Each mouse is hung by the base of its tail about 30 cm above the surface of a table until the mouse turns either left or right. A left turn is given a score of 0 and a right turn is given a score of 1.
Forelimb placement is also noted during tail hanging. The placement of the limbs is given a score on a 4 point scale. Extended limbs, or those placed above the head are given a score of 0. Limbs which are clasped or held against the body are given a score of 3. Scores of 1 or 2 are assigned for relative stages between the two extremes. Hindlimb placement is also scored as below.
(§1) Mice that receive systemic injections of the pyridine toxin 1-methyl-4-phenyl-1,2,3,6-tetrahydropyridine (MPTP) selectively lose large numbers of dopaminergic neurons in the substantia nigra (SN) and the ventral tegmental area (VTA). Loss of dopamine cells in the SN mimics the clinical condition seen in Parkinson's disease. Loss of such cells in the VTA may contribute to the cognitive deficits seen in Parkinson's and Alzheimer's disease, due to these neurons' projections into the frontal cortex.
(§2) 50 C57B1/B6 type mice (8-12 weeks old) are allowed to acclimate for 12-14 days before experimental use. The mice are then randomly assigned to the following groups: MPTP plus DMSO vehicle; vehicle alone, MPTP plus brimonidine (3 mg/kg/day), MPTP plus AGN 197075 (3 mg/kg/day), and MPTP plus AGN 196923 (3 mg/kg/day)).
In the presently described assays, each mouse is then given an initial Open-Field test and a Tail Hanging test. The Open Field test is the most frequently used behavioral assay of MPTP-treated mice, and appears to be sensitive to loss of dopaminergic input from the substantia nigra. The Tail-Hanging test is sensitive to direct striatal damage; the Nest Building test is sensitive to loss of striatal input from the frontal cortex. […]
(§3) For all behavioral tests, the results are first analyzed using a repeated measures ANOVA, following by tests of the between groups effect using Fisher's HSD method.

[2] = test system: dopaminergic neurons in the ventral tegmental area (VTA); assay: Neuron counting (tyrosine hydroxylase-labeled cells) in ventral tegmental area of MPTP-treated mice; settings: 3 mg/kg/day s.c. mini-pump 14 days; MPTP alone 28% fewer neurons than Control
Excerpt: (§4) Between 55 and 60 day post MPTP injection, the mice are sacrificed using sodium nembutol. Mouse brains are perfused with phosphate buffered saline followed by Lana's fixative (paraformaldehyde and picric acid). The brains are removed and placed in Lana's fixative for 7 to 10 days. The brains are then sectioned coronally at 50 micrometers using a vibratome. And the sections stained with an antibody to tyrosine hydoxylase, the rate limiting enzyme in dopamine synthesis. The section was then examined under microscope at 100× magnification. Tissue slices (−2.9 mm and −3.6 mm posterior to Bregma were selected for cell counting in the SN and VTA. These sections are at the midpoint of the rostral half and the midpoint of the cauldual half of SN, respectively. Each TH-labeled cell that is clearly visible that has between 2 and 6 neurites is considered a neuron. An overall average count for each animal is calculated from the four sections (rostral and caudal, left and right). An average is obtained for the four sections. Separate analyses are performed on the neuron counts from SN and VTA. These counts are analyzed using a repeated measures ANOVA, following by tests of the between groups effect using Fisher's HSD method.
as §1
50 C57B1/B6 type mice (8-12 weeks old) are allowed to acclimate for 12-14 days before experimental use. The mice are then randomly assigned to the following groups: MPTP plus DMSO vehicle; vehicle alone, MPTP plus brimonidine (3 mg/kg/day), MPTP plus AGN 197075 (3 mg/kg/day), and MPTP plus AGN 196923 (3 mg/kg/day)). […]

[3] = test system: MPTP-treated mice; assay: Open-Field test in MPTP-treated mice; settings: for Open field activity compared with the vehicle group: 3 mg/kg/day s.c. osmotic mini-pump 14 days
Procedure: Each animal is placed in a clear plastic open field box with two rows of photo-beams mounted on the sides to distinguish be5tween horizontal (i.e. distance traveled) and vertical (i.e. “rears”) movements. Ambient conditions are low noise and dim lighting. The animal's movements within the box are measured for 5 minutes, and calculated from records of the number and type of “beam-breaks” or photo-beam crossings. On the last Open Field test, only rears are counted, and classified as either “supported” or “unsupported”. Supported rears are when an animal places at least one forelimb on the side wall of the box when a rear is recorded. In an unsupported rear the mouse is supported solely by hindlimbs. These rears are distinguished by videorecording. The number of unsupported rears is the most reliable measure of dopamine neuron loss in this test.
as §1, §2
In the presently described assays, each mouse is then given an initial Open-Field test and a Tail Hanging test. […]
as §3

[4] = test system: dopaminergic neurons in the substantia nigra (SN); assay: Neuron counting (tyrosine hydroxylase-labeled cells) in substantia nigra of MPTP-treated mice; settings: for Neuron loss in the substantia nigra versus MPTP-treated animals: 3 mg/kg/day s.c. mini-pump 14 days, 55-60 days post MPTP; for Average Neuron Count (statistical error): substantia nigra, 3 mg/kg/day s.c. mini-pump 14 days + MPTP 40 mg/kg s.c., Control 60, Vehicle + MPTP 25
Excerpt: as §4, §1, §2
Four out of the 5 groups of mice receive an infusion of a test compound (or of vehicle containing no compound). These infusions are administered via subcutaneous implanted osmotic mini-pump over a 14 day period at a flow of 0.25 microliters/hour. Three days following implantation of the pumps, the mice are given the Open Field and Tail Hanging tests, along with the group of control mice, who are not implanted with mini-pumps. Immediately following the tests, the pump containing mice were given a 40 mg/kg injection of MPTP subcutaneously. All groups are then given the Open Field and Tail Hanging tests at 10-12 days and 30-40 days following MPTP treatment. The Open Field, and Tail Hanging tests are given at 50-55 days post MPTP treatment.

SMILES | Impairment of forelimb extensions (tail hang test) [1] | Reduction of MPTP-induced neuron loss in the Ventral Tegmental area [2] | Open field activity compared with the vehicle group ([3]; 10 days post MPTP) | Neuron loss in the substantia nigra versus MPTP-treated animals [4] | Average Neuron Count (statistical error) [4] | Number of unsupported rears compared with vehicle ([3]; 3 mg/kg/day s.c. mini-pump, 50-60 days post MPTP treatment) | Open field activity compared with the vehicle group ([3]; 10 and 30 days post MPTP (40 mg/kg s.c.))
CCC1=CC(Cc2c[nH]cn2)CCC1 (stereo not drawn) [AGN 196923] | no such trend | about 10% | significant reduces the amount of activity | significantly less neuron loss | 35 (±2) |  | 
OCCNC(=S)NCc1cccc(Cl)c1F [AGN 197075] | significantly reduces this impairment | about 10% |  | significantly less neuron loss | 37 (±2) | significantly more unsupported rears | 
Brc1c(NC2=NCCN2)ccc2nccnc12 [brimonidine, reference compound] | no such trend | about 10% |  | significantly less neuron loss | 32 (±1) |  | no alteration in this increase of activity
